In PubChem BioAssay AID2060358 (Molecular Pharmacology Branch, DTP, NCI, 2025):
The source made the active and inactive calls. The calls were made as follows: active = viability on the fitted dose curve at most 10% of control; inactive = the rest.

Tested on: 254851-301-R-J1-PDC spheroids, viability % test/control
Test: Anticancer human tumor 254851-301-R-J1-PDC patient-derived colon carcinoma cell line growth inhibition [TAK]
Conditions: spheroids with HUVEC and MSC; for IC50: curve of first compound; for viability, T/C: stronger effect = lower value
From the text: Combinatorial screen of targeted agents with TAK-243 and ipatasertib in multi-cell type tumor spheroids
A high-throughput screen of multi-cell type tumor spheroids was designed to identify active combinations of targeted small molecules and TAK-243 or ipatasertib. Complex spheroids include a stromal component modeled by human endothelial cells (HUVEC) and fibroblasts modeled by human mesenchymal stem cells (MSCs). The concentration ranges selected for each drug and investigational agent were based upon clinically achievable concentrations if the clinical Cmax of the agent was known.
Compounds. The drugs and investigational agents: TAK-243 (785004), ipatasertib (767898), everolimus (733504), selumetinib (741078), bortezomib (756655), trametinib (758246), ixazomib (758254), vemurafenib (761431), dabrafenib (764134), sapanisertib (764658), alpelisib (765974), and copanlisib (816437), were obtained from the National Cancer Institute (NCI) Developmental Therapeutics Program Chemical Repository. The FDA-approved anticancer drug set is available from the NCI Developmental Therapeutics Program. […] The stock solutions were prepared in dimethyl sulfoxide (DMSO, Sigma-Aldrich, St. Louis, MO, cat. D2650) at 800-fold the tested concentration and stored at -70 degrees C prior to their use. All drugs and investigational agents were tested over a range starting from a high concentration at or near the clinical Cmax and decreasing in half-log increments. If the clinical Cmax for an agent had not been determined, the highest concentration tested was 10 microM.
NCI60 Cell Culture. NCI60 cell lines were obtained from the NCI Developmental Therapeutics Program Tumor Repository. For each lot of cells, the Repository performed Applied Biosystems AmpFLSTR Identifiler testing with PCR amplification to confirm consistency with the published Identifier STR profile for each cell line. Cells were kept in continuous culture for no more than 20 passages. The optimal seeding densities for each of the cell lines at each time point assessed were determined prior to performing the concentration response studies. Briefly, the NCI60 human tumor lines were grown as monolayers in RPMI 1640 medium supplemented with 10% FBS and 2 mmol/L L-glutamine.
An additional 2 lines were from the NCI60 cell line panel including melanomas, MALME-3M and SK-MEL-2. Pooled donor human umbilical vein endothelial cells (HUVEC, Lonza, cat. CC-2519) and human mesenchymal stem cells (hMSC, Lonza, cat. PT-2501) were purchased from Lonza (Walkersville, MD).
PDMR cell lines were grown in complete medium (DC medium): Dulbecco's modified Eagle's medium (DMEM)/F12 supplemented with 5% fetal bovine serum (FBS), 2 mM L-glutamine, 100 U/mL penicillin and 100 µg/ml streptomycin, 0.4 µg/ml hydrocortisone, 10 ng/ml epidermal growth factor (EGF) recombinant human protein, 24 µg/mL adenine, and 0.1 mg/mL primocin. During culture from frozen stock vials, PDMR cells were cultured in the same medium containing 10 µM Y-27632 (see Table 3). The PDCs were cultured in complete DMEM/F12 media without 10 microM Y-27632 dihydrochloride for at least two passages prior to the screen. The pooled donor HUVEC and hMSC were cultured in endothelial cell growth medium 2 (PromoCell, Heidelberg, Germany, cat. C-22011) and mesenchymal stem cell growth medium 2 (PromoCell, cat. C-28009), respectively. For all experiments, HUVEC and hMSC were used at passages </=5.
For the pre-screen, cell seeding densities were determined from a titration spanning the range from 5,000 to 313 cells per well. The mct-spheroids including 60% malignant cells, 25% HUVEC and 15% MSC dispensed as a mixture into U-bottom Ultra-Low Attachment 384-well plates (Corning, NY)
High-throughput Drug Combination Screening.
Prior to their inoculation into 384-well plates, malignant cells, HUVEC, and hMSC were removed from T flasks using TrypLE express (Thermo Fisher Scientific, cat. 12605036) and harvested by centrifugation for 5 min at 233 x g. […]
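For IC50 in this document: spheroids exposed to drugs for seven days before viability readout.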
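For viability, T/C in this document: spheroids exposed to drugs for seven days before viability readout.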

Compound Cc1nc(NC(=O)N2CCCC2C(N)=O)sc1-c1ccnc(C(C)(C)C(F)(F)F)c1 (stereo not given) + CC(C)NCC(C(=O)N1CCN(c2ncnc3c2C(C)CC3O)CC1)c1ccc(Cl)cc1 has an IC50 (second compound 0.3 µM) greater than 10 µM, an IC50 (second compound 0.949 µM) greater than 10 µM and an IC50 (second compound 3 µM) greater than 10 µM. The IC50 (second compound 9.49 µM) was greater than 10 µM, the IC50 (second compound 30 µM) was greater than 10 µM and the viability, T/C (second compound 0.3 µM, first compound 0.0316 µM) was 117%. For the same compound, the viability, T/C (second compound 0.3 µM, first compound 0.1 µM) was 102%, the viability, T/C (second compound 0.3 µM, first compound 0.316 µM) was 109% and the viability, T/C (second compound 0.3 µM, first compound 1 µM) was 89.4%. For the same compound, the viability, T/C (second compound 0.3 µM, first compound 3.16 µM) was 79.4%, the viability, T/C (second compound 0.3 µM, first compound 10 µM) was 73.4% and the viability, T/C (second compound 0.949 µM, first compound 0.0316 µM) was 106%. For the same compound, the viability, T/C (second compound 0.949 µM, first compound 0.1 µM) was 114%, the viability, T/C (second compound 0.949 µM, first compound 0.316 µM) was 93.6% and the viability, T/C (second compound 0.949 µM, first compound 1 µM) was 99.5%. The viability, T/C (second compound 0.949 µM, first compound 3.16 µM) was 83.1%, the viability, T/C (second compound 0.949 µM, first compound 10 µM) was 69% and the viability, T/C (second compound 3 µM, first compound 0.0316 µM) was 113%. The viability, T/C (second compound 3 µM, first compound 0.1 µM) was 101%, the viability, T/C (second compound 3 µM, first compound 0.316 µM) was 98% and the viability, T/C (second compound 3 µM, first compound 1 µM) was 94.6%. The viability, T/C (second compound 3 µM, first compound 3.16 µM) was 79.3%, the viability, T/C (second compound 3 µM, first compound 10 µM) was 73.9% and the viability, T/C (second compound 9.49 µM, first compound 0.0316 µM) was 105%. For the same compound, the viability, T/C (second compound 9.49 µM, first compound 0.1 µM) was 106%, the viability, T/C (second compound 9.49 µM, first compound 0.316 µM) was 101% and the viability, T/C (second compound 9.49 µM, first compound 1 µM) was 97.3%. For the same compound, the viability, T/C (second compound 9.49 µM, first compound 3.16 µM) was 85%, the viability, T/C (second compound 9.49 µM, first compound 10 µM) was 74.8% and the viability, T/C (second compound 30 µM, first compound 0.0316 µM) was 82.5%. For the same compound, the viability, T/C (second compound 30 µM, first compound 0.1 µM) was 99.3%, the viability, T/C (second compound 30 µM, first compound 0.316 µM) was 88.4% and the viability, T/C (second compound 30 µM, first compound 1 µM) was 79.4%. It also gave a viability, T/C (second compound 30 µM, first compound 3.16 µM) of 79.4% and a viability, T/C (second compound 30 µM, first compound 10 µM) of 69.4%.

CC(=O)Nc1cccc(-n2c(=O)n(C3CC3)c(=O)c3c(Nc4ccc(I)cc4F)n(C)c(=O)c(C)c32)c1 + CC(C)NCC(C(=O)N1CCN(c2ncnc3c2C(C)CC3O)CC1)c1ccc(Cl)cc1 gave an IC50 (second compound 0.3 µM) of 0.0176 µM, an IC50 (second compound 0.949 µM) of 0.0176 µM and an IC50 (second compound 3 µM) of 0.0186 µM. For the same compound, the IC50 (second compound 9.49 µM) was 0.0173 µM, the IC50 (second compound 30 µM) was 0.0125 µM and the viability, T/C (second compound 0.3 µM, first compound 94.9 pM) was 115%. For the same compound, the viability, T/C (second compound 0.3 µM, first compound 0.0003 µM) was 109%, the viability, T/C (second compound 0.3 µM, first compound 0.000949 µM) was 108% and the viability, T/C (second compound 0.3 µM, first compound 0.003 µM) was 116%. For the same compound, the viability, T/C (second compound 0.3 µM, first compound 0.00949 µM) was 95.7%, the viability, T/C (second compound 0.3 µM, first compound 0.03 µM) was 11% and the viability, T/C (second compound 0.949 µM, first compound 94.9 pM) was 111%. The viability, T/C (second compound 0.949 µM, first compound 0.0003 µM) was 110%, the viability, T/C (second compound 0.949 µM, first compound 0.000949 µM) was 111% and the viability, T/C (second compound 0.949 µM, first compound 0.003 µM) was 102%. It also gave a viability, T/C (second compound 0.949 µM, first compound 0.00949 µM) of 88.5%, a viability, T/C (second compound 0.949 µM, first compound 0.03 µM) of 17.4% and a viability, T/C (second compound 3 µM, first compound 94.9 pM) of 106%. It also gave a viability, T/C (second compound 3 µM, first compound 0.0003 µM) of 107%, a viability, T/C (second compound 3 µM, first compound 0.000949 µM) of 110% and a viability, T/C (second compound 3 µM, first compound 0.003 µM) of 116%. The outcome (second compound 3 µM, first compound 0.00949 µM) was “inactive”, the viability, T/C (second compound 3 µM, first compound 0.03 µM) was 9.28% and the viability, T/C (second compound 9.49 µM, first compound 94.9 pM) was 94.7%. The viability, T/C (second compound 9.49 µM, first compound 0.0003 µM) was 114%, the viability, T/C (second compound 9.49 µM, first compound 0.000949 µM) was 106% and the viability, T/C (second compound 9.49 µM, first compound 0.003 µM) was 108%. For the same compound, the viability, T/C (second compound 9.49 µM, first compound 0.00949 µM) was 97.7%, the viability, T/C (second compound 9.49 µM, first compound 0.03 µM) was 6.45% and the viability, T/C (second compound 30 µM, first compound 94.9 pM) was 81.1%. It also gave a viability, T/C (second compound 30 µM, first compound 0.0003 µM) of 96.6%, a viability, T/C (second compound 30 µM, first compound 0.000949 µM) of 97.3% and a viability, T/C (second compound 30 µM, first compound 0.003 µM) of 81.4%. It also gave a viability, T/C (second compound 30 µM, first compound 0.00949 µM) of 65.3% and a viability, T/C (second compound 30 µM, first compound 0.03 µM) of 2.95%.
